Data reported in patent US9670139B2, “Telomerase activating compounds and methods of use thereof” (BEN-GURION UNIVERSITY OF THE NEGEV RESEARCH AND DEVELOPMENT …, priority 2007, dated 2017).

Experiments:
[1] = Graft-versus-host disease (GVHD) induced by C57BL/6 spleen cells; type: in vivo, mouse; settings: F1 mice inoculated with 30×10^6 C57BL/6 spleen cells
Excerpt: (BALB/c×C57BL/6)F1 mice were inoculated with 30×10^6C57BL/6 spleen cells for induction of GVHD.

[2] = test system: telomerase; test: Telomerase expression in rat brain cortex after subcutaneous injection (immunofluorescence); type: in vivo
Excerpt: The effect of compounds of the present invention injected subcutaneously into female rats and adult male mice on telomerase expression in various regions of the brain was examined.

[3] = test system: C. elegans; test: Lifespan extension of nematodes (C. elegans); type: in vivo; settings: 50 micromolar; for Lifespan extension (%): Table 2, versus untreated controls; for Lifespan %: table of scaffold drawing 36, mean lifespan versus control
Procedure: Nematodes (C. elegans) were administered tri-phenyl telomerase-activating compounds presented in the following tables, and telomerase activity and/or expression was measured in terms of nematode lifespan extension. Nematodes were grown with the activators at 50 micromolar concentration, and the mean, maximum and half-life for Compound 68 and Compound 77, two representative molecules, was measured versus that of the control (FIG. 8). Values represent mean lifespan.
Survival of the C. elegans, a nematode that normally survives for 12-14 days, represents an acceptable model for studying life extension. Nematodes were administered tri-phenyl telomerase-activating compounds and their effect on the nematode lifespan extension was determined. Nematodes were grown with the activators at a concentration of 50 micromolar, and mean, maximum and half-life were measured in comparison with untreated controls. Lifespan increased by 13-43% (Table 2), and the median lifespan increased approximately 2-fold (from 12 days to 22 days, as shown in FIG. 8).

[4] = test system: murine B-cell leukemia lymphoma (BCL1) cells; test: BCL1 tumorigenicity in (BALB/c×C57BL/6)F1 mice; type: in vivo, mouse; settings: mice inoculated with 10^5 BCL1 cells; Compound 77 10 mM
Procedure: (BALB/c×C57BL/6)F1 mice were inoculated with 10^5 murine B-cell leukemia lymphoma (BCL1) cells. Splenomegaly and lymphocytosis (leukemia) developed in all controls and in mice treated with telomerase-activating compounds (40 or 80 mg/kg).

[5] = test system: Human keratinocytes; test: Proliferation and survival of senescent human keratinocytes; type: cell-based; settings: fifth passage keratinocytes
Procedure: Human keratinocytes which had lost their ability to proliferate (in their fifth passage) were obtained from a local skin bank and treated with Compound 68 for 24 h. Cell viability, cell number and morphology was examined.

[6] = test system: mouse cerebellum; test: Prevention of glutamate-induced apoptosis in mouse cerebellum slices; type: in vivo; settings: 6 mg/kg, 24 h; slices treated with glutamate 30 min
Procedure: The ability of compounds of the present invention to prevent glutamate-induced apoptosis in mouse cerebellum was examined. Mice were injected with 6 mg/kg of Compound 79 or with vehicle only. Mice were sacrificed 24 h after treatment and their brains were removed. Cerebellum slices were prepared and subjected to glutamate treatment at various concentrations for 30 min. Sections were stained with propidium iodide and the number of apoptotic cells was counted and calculated using specific software (Jimage). Prevention of apoptosis in mice treated with compounds of the present invention was calculated as a percentage relative to control mice (FIG. 13). This supports a role for compounds of the present invention in treating seizures, stroke, Alzheimer's disease, epilepsy, schizophrenia, and alcohol and opiate addition.

[7] = test system: telomerase; test: Telomerase expression in mouse brain regions after subcutaneous injection (immunofluorescence); type: in vivo; settings: three-month-old male mice, 24 h
Procedure: Compound 79 was injected subcutaneously into three-month-old male mice. The mice were sacrificed 24 h later and the cortex, cerebellum, hippocampus, hypothalamus, brain stem and olfactory bulb isolated and subjected to immunofluorescence. […] This activation appeared to be specific for certain neuronal cells.

[8] = test system: telomerase; test: Telomerase expression in mouse heart protein extracts; type: in vivo; settings: after injection, one mouse
Procedure: The activation of telomerase by compounds of the present invention in heart protein extracts derived from one mouse was measured (FIG. 14). […] This supports a role for compounds of the present invention in treating infarct, ischemia, myocarditis, etc.

[9] = target: T1, telomerase (Homo sapiens, UniProt O14746); test: Real time PCR quantification of telomerase activity in hMSC nuclear extracts; type: cell-based; set-up: endogenous in cells; settings: 250 nM
Procedure: FIG. 5: Activation of telomerase expression in hMSC by compounds of the present invention. A.—hMSC were treated with 250 nM of Compounds 79, 77 and 68 for 6 hours. Immunofluorescence was performed with anti-hTERT antibody (red) and the nucleus was stained with DAPI (blue). B. hMSC treated with compound 79 for 6 and 24 h. Telomerase activity was measured by real time PCR using a quantitative telomerase detection kit (Allied Biotech Inc., USA).
The possibility that compounds of the present invention enhance hMSC survival and proliferation by activation of TERT was examined by culturing hMSC (p 3) in a tissue culture chamber slide at 17×10^3 cells/well for 60 h. Compounds of the present invention were added for 6 h with fresh medium. Immunofluorescence with anti-hTERT antibody (first antibody) and cy3 fluorescent secondary antibody was carried out. The nucleus was stained with DAPI. Compounds of the present invention activated telomerase expression in hMSC (FIG. 5). […] Degree of activation of telomerase expression was Compound 68>79>77. Quantification of telomerase activity in hMSC was performed by Real time PCR (Quantification telomerase detection kit) in nuclear extracts derived from hMSC treated with compound 79 (250 nM) for 6 or 24 h. Compound 79 enhanced telomerase activity in hMSC by 12- or 6-fold in a time-dependent manner (FIG. 5B).

[10] = target: T1, telomerase; test: Telomerase activity in RPE cells (quantitative telomerase detection kit, real time PCR); type: cell-based; set-up: endogenous in cells; host or cells: human retinal pigmented epithelial (RPE) cells; settings: FIG. 7B
Excerpt: FIG. 7: A. The effect of compounds of the present invention on human retinal pigmented epithelial cells under oxidative stress. B. The effect of compounds on telomerase activity in RPE cells (measured by a quantitative telomerase detection kit-real time PCR).
Chronic exposure of human retinal pigmented epithelial (RPE) cells to oxidative stress predisposes them to the development of age-related macular degeneration (AMD). Human RPE cells were exposed to oxidative stress by treatment with H2O2 (1 mM) for 24 hours, and H2O2 (0.5 mM) for another 24 hours. The cells were then treated daily for two days with the indicated compounds in the absence of H2O2. Increased cell growth was observed as a consequence of treatment with the compounds (FIG. 7A). Telomerase activity was enhanced in RPE cells treated with compounds 68 and 79 by 30- and 50-fold, respectively (FIG. 7B).

T1 sequence (O14746 whole entry): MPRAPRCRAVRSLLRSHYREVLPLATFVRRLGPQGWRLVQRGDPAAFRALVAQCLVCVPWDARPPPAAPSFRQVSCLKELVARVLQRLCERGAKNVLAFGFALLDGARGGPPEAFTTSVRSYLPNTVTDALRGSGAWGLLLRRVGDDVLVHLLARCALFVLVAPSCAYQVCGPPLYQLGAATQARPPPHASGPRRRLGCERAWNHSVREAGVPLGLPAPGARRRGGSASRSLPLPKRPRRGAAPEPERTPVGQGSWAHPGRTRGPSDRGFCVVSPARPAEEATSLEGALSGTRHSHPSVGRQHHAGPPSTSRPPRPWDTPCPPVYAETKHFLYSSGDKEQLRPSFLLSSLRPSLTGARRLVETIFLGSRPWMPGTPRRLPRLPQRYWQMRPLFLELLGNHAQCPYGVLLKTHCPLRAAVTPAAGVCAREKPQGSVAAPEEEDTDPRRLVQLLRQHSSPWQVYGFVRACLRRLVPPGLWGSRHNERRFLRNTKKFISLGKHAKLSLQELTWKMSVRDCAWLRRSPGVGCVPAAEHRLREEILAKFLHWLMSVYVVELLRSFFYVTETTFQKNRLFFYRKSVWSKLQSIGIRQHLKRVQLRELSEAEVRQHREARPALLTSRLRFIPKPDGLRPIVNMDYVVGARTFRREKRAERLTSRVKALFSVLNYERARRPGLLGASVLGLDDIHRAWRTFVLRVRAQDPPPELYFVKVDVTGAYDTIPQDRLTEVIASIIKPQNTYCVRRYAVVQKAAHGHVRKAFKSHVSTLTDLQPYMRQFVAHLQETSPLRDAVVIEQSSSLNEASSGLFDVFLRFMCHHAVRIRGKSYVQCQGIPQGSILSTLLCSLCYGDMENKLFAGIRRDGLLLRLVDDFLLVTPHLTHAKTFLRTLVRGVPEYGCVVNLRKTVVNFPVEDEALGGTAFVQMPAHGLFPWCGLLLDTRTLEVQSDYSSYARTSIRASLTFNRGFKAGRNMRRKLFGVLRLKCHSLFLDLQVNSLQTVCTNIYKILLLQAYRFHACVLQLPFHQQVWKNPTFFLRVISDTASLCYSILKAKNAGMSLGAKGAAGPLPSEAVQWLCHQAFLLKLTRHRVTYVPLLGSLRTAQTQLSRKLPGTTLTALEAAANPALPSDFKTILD

Row | SMILES | signs of acute GVHD (weight loss) versus untreated controls [1] | expression of telomerase in the brain cortex [2] | Lifespan extension (%) [3] [%] | Lifespan % [3] [%] | Survival Median (range) [4] | cell survival effect on keratinocytes (comparison) [5] | glutamate-induced apoptosis in mouse cerebellum [6] | telomerase expression in motor-neuronal cells of the brain stem [7] | telomerase expression in the various brain regions [7] | heart telomerase expression [8] | enhancement of telomerase activity in hMSC ([9]; 6 h) [fold] | enhancement of telomerase activity in hMSC ([9]; 24 h) [fold] | enhancement of telomerase activity in RPE cells [10] [fold]
1 | CN(C)Cc1cc(C(C)(c2cc(CN(C)C)c(O)c(CN(C)C)c2)c2cc(CN(C)C)c(O)c(CN(C)C)c2)cc(CN(C)C)c1O [Compound 77] | more severe signs of acute GVHD | significantly activated | 43 | 43 | 26 (22-41) | – | – | – | – | – | – | – | –
2 | CCOCc1cc(C(C)(c2cc(COCC)c(O)c(COCC)c2)c2cc(COCC)c(O)c(COCC)c2)cc(COCC)c1O [Compound 79] | – | significantly activated | 16 | 16 | – | better cell survival effect than Compound 68 | Prevention of glutamate-induced apoptosis | increased telomerase expression | significantly and dramatically increased | significant increase | 12 | 6 | 50
